We go through one molecule from patent US5650412A, “HIV protease inhibitors useful for the treatment of AIDS” (Merck & Co., Inc., priority 1995, dated 1997).

Each structure is given as a SMILES string.

Assay [1] has as its system HIV-1. Kind of assay: Cell spread assay: inhibition of the spread of HIV in MT-4 T-lymphoid cell culture. The settings on record: Human immunodeficiency virus 1, 72 h; MT-4 T-lymphoid cells, HIV-1 wild-type, 3 days with inhibitor, p24 accumulation; read-out: CIC95 (inhibitor concentration which reduced the spread of infection by at least 95%). The assay is classed as cell-based. The method, then: Inhibition of the spread of HIV in cell culture was measured according to Nunberg, J. H. et al., J. Virol. 65, 4887 (1991). In this assay, MT-4 T-lymphoid cells were infected with HIV-1 (wild-type, unless otherwise indicated) by using a predetermined inoculum, and cultures were incubated for 24 h. At this time, ≤1% of the cells were positive by indirect immunofluorescence. Cells were then extensively washed and distributed into 96-well culture dishes. Serial twofold dilutions of inhibitor were added to the wells, and cultures were continued for 3 additional days. At 4 days postinfection, 100% of the cells in control cultures were infected. HIV-1 p24 accumulation was directly correlated with virus spread. The cell culture inhibitory concentration was defined as the inhibitor concentration in nanomoles/liter which reduced the spread of infection by at least 95%, or CIC95. The CIC95 for compound A is 25 nM.
INHIBITION OF VIRUS SPREAD
A. Preparation of HIV-infected MT-4 cell Suspension […]
The concentration of HIV p24 antigen is measured by an enzyme immunoassay, described as follows. Aliquots of p24 antigen to be measured are added to microwells coated with a monoclonal antibody specific for HIV core antigen. […]

For assay [2], the target named is T1, HIV protease (Human immunodeficiency virus type 1 group M subtype B, UniProt P04585).
T1 construct: made in house; host or cells: Escherichia coli
Kind of assay: Inhibition of Microbial Expressed HIV Protease (protease expressed in Escherichia coli, peptide substrate, HPLC of products). The assay is classed as biochemical. The settings on record: 50 mM Na acetate, pH 5.5, 30° C., 1 hour. The method, then:
Assay for Inhibition of Microbial Expressed HIV Protease
Inhibition studies of the reaction of the protease expressed in Eschericia coli with a peptide substrate [Val-Ser-Gln-Asn-(betanaphyl)Ala-Pro-Ile-Val, 0.5 mg/mL at the time the reaction is initiated] were in 50 mM Na acetate, pH 5.5, at 30° C. for 1 hour. Various concentrations of inhibitor in […] DMSO were added to […] of the peptide solution in water. The reaction is initiated by the addition of […] of 0.33 nM protease (0.11 ng) in a solution of 0.133M Na acetate pH 5.5 and 0.1% bovine serum albumin. The reaction was quenched with […] of 5% phosphoric acid. Products of the reaction were separated by HPLC (VYDAC wide pore 5 cm C-18 reverse phase, acetonitrile gradient, 0.1% phosphoric acid). The extent of inhibition of the reaction was determined from the peak heights of the products.

Take `COc1cc(CN2CCN(C[C@@H](O)[C@H](Cc3ccccc3)NC(=O)O[C@@H]3CCS(=O)(=O)[C@@H]3C(C)C)[C@H](C(=O)NC(C)(C)C)C2)cc2c1OCO2` [Compound A, N-tert-butyl-1-[2'(R)-hydroxy-4'-phenyl-3'(S)-[3"(R)-[1'",1'"-dioxo-2'"(R)-methylethyl]tetrahydrothienyloxycarbonylamino]butyl]-4-[(3'-methoxy-4',5'-methylenedioxyphenyl)methyl]piperazine-2(S)-carboxamide]: in assay [1], the IC95 was determined as 25 nM. The concentration for half-maximal inhibition (IC50) in assay [2] is ~1.2 nM.

A word on the IC50: it is the concentration at which inhibition is half-maximal. A high value points to weaker potency.
